Measured values published in US8889667B2 (Agios Pharmaceuticals, Inc, priority 2010, dated 2014).

The compounds below were run against PKM2 (Homo sapiens, UniProt P14618) (assay: PKM2 Assay (activation, LDH-coupled, absorbance at 340 nm)). Settings: Table 4.
Format: biochemical
Outline: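 Human PKM2 (50 ng/well) was preincubated with compound and coupling mix for 30 min at 4 °C without ADP. Reactions were then started with ADP (0.7 mM) alongside PEP 0.15 mM, NADH 180 μM and LDH, in Tris pH 7.5/KCl/MgCl2/DTT/BSA buffer. A340 was followed at 25 °C and activation reported as AC50.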

Chain of PKM2 (P14618 whole entry): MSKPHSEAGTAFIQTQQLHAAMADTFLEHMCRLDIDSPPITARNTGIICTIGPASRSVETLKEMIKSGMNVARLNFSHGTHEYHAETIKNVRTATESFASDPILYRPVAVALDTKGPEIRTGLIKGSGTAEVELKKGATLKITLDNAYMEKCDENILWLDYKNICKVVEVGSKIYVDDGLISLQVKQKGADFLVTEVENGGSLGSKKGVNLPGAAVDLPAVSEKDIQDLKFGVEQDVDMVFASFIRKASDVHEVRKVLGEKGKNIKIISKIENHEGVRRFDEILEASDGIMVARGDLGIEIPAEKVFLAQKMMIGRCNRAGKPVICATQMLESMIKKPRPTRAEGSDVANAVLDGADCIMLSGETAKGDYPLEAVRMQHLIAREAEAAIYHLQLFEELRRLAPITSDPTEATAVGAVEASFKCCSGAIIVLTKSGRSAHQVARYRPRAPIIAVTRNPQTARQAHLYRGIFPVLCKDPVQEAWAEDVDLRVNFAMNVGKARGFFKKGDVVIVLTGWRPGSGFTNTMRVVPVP

First: C[C@H]1CN(Cc2c(F)cc(F)cc2F)CCN1C(=O)c1ccc(NS(=O)(=O)c2cccc3cccnc23)cc1Cl [Compound 188, (S)—N-(3-chloro-4-(2-methyl-4-(2,4,6-trifluorobenzyl)piperazine-1-carbonyl)phenyl)quinoline-8-sulfonamide]
Second: CC1CN(Cc2c(F)cc(F)cc2F)CC(C)N1C(=O)c1ccc(NS(=O)(=O)c2cccc3cccnc23)cc1 (stereo not drawn) [Compound 202, N-(4-(2,6-dimethyl-4-(2,4,6-trifluorobenzyl)piperazine-1-carbonyl)phenyl)quinoline-8-sulfonamide]
The AC50 of the first is higher: 500 to 1000 nM for the first, 100 to 500 nM for the second.

CC(c1ccc(F)c(F)c1F)N1CCN(C(=O)c2ccc(NS(=O)(=O)c3cccc4cccnc34)cc2)[C@H](C)C1 (stereo partly drawn) [Compound 189, N-(4-((2R)-2-methyl-4-(1-(2,3,4-trifluorophenyl)ethyl)piperazine-1-carbonyl)phenyl)quinoline-8-sulfonamide] and CC(c1c(F)ccc(F)c1F)N1CCN(C(=O)c2ccc(NS(=O)(=O)c3cccc4cccnc34)cc2)[C@H](C)C1 (stereo partly drawn) [Compound 190, N-(4-((2R)-2-methyl-4-(1-(2,3,6-trifluorophenyl)ethyl)piperazine-1-carbonyl)phenyl)quinoline-8-sulfonamide] cannot be ordered by AC50: less than 100 nM for the first, less than 100 nM for the second.

CC(c1ccc(F)cc1Cl)N1CCN(C(=O)c2ccc(NS(=O)(=O)c3cccc4cccnc34)cc2)[C@H](C)C1 (stereo partly drawn) [Compound 191, N-(4-((2R)-4-(1-(2-chloro-4-fluorophenyl)ethyl)-2-methylpiperazine-1-carbonyl)phenyl)quinoline-8-sulfonamide] and CC(c1c(F)ccc(F)c1F)N1CCN(C(=O)c2ccc(NS(=O)(=O)c3cccc4cccnc34)cc2)[C@@H](C)C1 (stereo partly drawn) [Compound 192, N-(4-((2S)-2-methyl-4-(1-(2,3,6-trifluorophenyl)ethyl)piperazine-1-carbonyl)phenyl)quinoline-8-sulfonamide] fall in the same range of AC50: 100 to 500 nM for the first, 100 to 500 nM for the second.

First: CC1CN(Cc2cc(F)cc(F)c2)CC(C)N1C(=O)c1ccc(NS(=O)(=O)c2cccc3cccnc23)cc1 (stereo not drawn) [Compound 194, N-(4-(4-(3,5-difluorobenzyl)-2,6-dimethylpiperazine-1-carbonyl)phenyl)quinoline-8-sulfonamide]
Second: CC1CN(Cc2cc(F)c(F)c(F)c2)CC(C)N1C(=O)c1ccc(NS(=O)(=O)c2cccc3cccnc23)cc1 (stereo not drawn) [Compound 201, N-(4-(2,6-dimethyl-4-(3,4,5-trifluorobenzyl)piperazine-1-carbonyl)phenyl)quinoline-8-sulfonamide]
The AC50 of the first is lower: less than 100 nM for the first, 100 to 500 nM for the second.

First: CC1CN(Cc2ccc(F)cc2)CC(C)N1C(=O)c1ccc(NS(=O)(=O)c2cccc3cccnc23)cc1 (stereo not drawn) [Compound 196, N-(4-(4-(4-fluorobenzyl)-2,6-dimethylpiperazine-1-carbonyl)phenyl)quinoline-8-sulfonamide]
Second: CC1CN(Cc2ccc(Cl)c(F)c2)CC(C)N1C(=O)c1ccc(NS(=O)(=O)c2cccc3cccnc23)cc1 (stereo not drawn) [Compound 197, N-(4-(4-(4-chloro-3-fluorobenzyl)-2,6-dimethylpiperazine-1-carbonyl)phenyl)quinoline-8-sulfonamide]
The AC50 of the first is lower: less than 100 nM for the first, 100 to 500 nM for the second.

First: CC1CN(CC2CCCCC2)CC(C)N1C(=O)c1ccc(NS(=O)(=O)c2cccc3cccnc23)cc1 (stereo not drawn) [Compound 198, N-(4-(4-(cyclohexylmethyl)-2,6-dimethylpiperazine-1-carbonyl)phenyl)quinoline-8-sulfonamide]
Second: CC1CN(CC2CCOC2)CC(C)N1C(=O)c1ccc(NS(=O)(=O)c2cccc3cccnc23)cc1 (stereo not drawn) [Compound 204, N-(4-(2,6-dimethyl-4-((tetrahydrofuran-3-yl)methyl)piperazine-1-carbonyl)phenyl)quinoline-8-sulfonamide]
The AC50 of the first is lower: 100 to 500 nM for the first, 500 to 1000 nM for the second.

CC1CN(Cc2c(F)ccc(F)c2F)CC(C)N1C(=O)c1ccc(NS(=O)(=O)c2cccc3cccnc23)cc1 (stereo not drawn) [Compound 199, N-(4-(2,6-dimethyl-4-(2,3,6-trifluorobenzyl)piperazine-1-carbonyl)phenyl)quinoline-8-sulfonamide] and CC1CN(Cc2cc(F)cc(F)c2F)CC(C)N1C(=O)c1ccc(NS(=O)(=O)c2cccc3cccnc23)cc1 (stereo not drawn) [Compound 200, N-(4-(2,6-dimethyl-4-(2,3,5-trifluorobenzyl)piperazine-1-carbonyl)phenyl)quinoline-8-sulfonamide] cannot be ordered by AC50: less than 100 nM for the first, less than 100 nM for the second.

Compared with CC1CN(Cc2cc(F)c(F)cc2F)CC(C)N1C(=O)c1ccc(NS(=O)(=O)c2cccc3cccnc23)cc1 (stereo not drawn) [Compound 203, N-(4-(2,6-dimethyl-4-(2,4,5-trifluorobenzyl)piperazine-1-carbonyl)phenyl)quinoline-8-sulfonamide], O=C(c1ccc(NS(=O)(=O)c2cccc3cccnc23)cc1)N1C2CCC1CN(Cc1cc(F)cc(F)c1)C2 [Compound 227, N-(4-(3-(3,5-difluorobenzyl)-3,8-diazabicyclo[3.2.1]octane-8-carbonyl)phenyl)quinoline-8-sulfonamide] is higher in AC50: less than 100 nM for the first, 100 to 500 nM for the second.

First: C[C@@H]1CN(CC2CCC2)CCN1C(=O)c1ccc(NS(=O)(=O)c2cccc3cccnc23)cc1 [Compound 206, (R)—N-(4-(4-(cyclobutylmethyl)-2-methylpiperazine-1-carbonyl)phenyl)quinoline-8-sulfonamide]
Second: C[C@H]1CN(CC2CCC2)CCN1C(=O)c1ccc(NS(=O)(=O)c2cccc3cccnc23)cc1 [Compound 207, (S)—N-(4-(4-(cyclobutylmethyl)-2-methylpiperazine-1-carbonyl)phenyl)quinoline-8-sulfonamide]
The AC50 of the first is lower: less than 100 nM for the first, 100 to 500 nM for the second.

C[C@H]1CN(C[C@@H]2CCOC2)CCN1C(=O)c1ccc(NS(=O)(=O)c2cccc3cccnc23)cc1 [Compound 209] and C[C@H]1CN(C[C@H]2CCOC2)CCN1C(=O)c1ccc(NS(=O)(=O)c2cccc3cccnc23)cc1 [Compound 210] fall in the same range of AC50: 100 to 500 nM for the first, 100 to 500 nM for the second.

First: C[C@@H]1CN(C[C@H]2CCCO2)CCN1C(=O)c1ccc(NS(=O)(=O)c2cccc3cccnc23)cc1 [Compound 212, N-(4-((R)-2-methyl-4-(((R)-tetrahydrofuran-2-yl)methyl)piperazine-1-carbonyl)phenyl)quinoline-8-sulfonamide]
Second: O=C(c1ccc(NS(=O)(=O)c2cccc3cccnc23)cc1)N1C2CCC1CN(CC1CC1)C2 [Compound 228, N-(4-(3-(cyclopropylmethyl)-3,8-diazabicyclo[3.2.1]octane-8-carbonyl)phenyl)quinoline-8-sulfonamide]
The AC50 of the first is lower: less than 100 nM for the first, 100 to 500 nM for the second.

O=C(c1ccc(NS(=O)(=O)c2cccc3cccnc23)cc1)N1C2CCC1CN(Cc1ccccc1)C2 [Compound 213] and O=C(c1ccc(NS(=O)(=O)c2cccc3cccnc23)cc1)N1C2CCC1CN(Cc1ccc(F)cc1)C2 [Compound 226, N-(4-(3-(4-fluorobenzyl)-3,8-diazabicyclo[3.2.1]octane-8-carbonyl)phenyl)quinoline-8-sulfonamide] cannot be ordered by AC50: less than 100 nM for the first, less than 100 nM for the second.

First: O=C1CN(C(=O)c2ccc(NS(=O)(=O)c3cccc4cccnc34)cc2)CCN1CC1CC1 [Compound 214]
Second: O=C(c1ccc(NS(=O)(=O)c2cccc3cccnc23)cc1)N1CC2CCC(C1)N2CC1CC1 [Compound 221, N-(4-(8-(cyclopropylmethyl)-3,8-diazabicyclo[3.2.1]octane-3-carbonyl)phenyl)quinoline-8-sulfonamide]
The AC50 of the first is higher: 100 to 500 nM for the first, less than 100 nM for the second.

First: O=C1CN(C(=O)c2ccc(NS(=O)(=O)c3cccc4cccnc34)cc2)CCN1Cc1cc(F)cc(F)c1 [Compound 216, N-(4-(4-(3,5-difluorobenzyl)-3-oxopiperazine-1-carbonyl)phenyl)quinoline-8-sulfonamide]
Second: O=C(c1ccc(NS(=O)(=O)c2cccc3cccnc23)cc1)N1CC2CCC(C1)N2Cc1cc(F)cc(F)c1 [Compound 218, N-(4-(8-(3,5-difluorobenzyl)-3,8-diazabicyclo[3.2.1]octane-3-carbonyl)phenyl)quinoline-8-sulfonamide]
The AC50 of the first is lower: less than 100 nM for the first, 100 to 500 nM for the second.

Compared with O=C(c1ccc(NS(=O)(=O)c2cccc3cccnc23)cc1)N1CC2CCC(C1)N2Cc1ccc(F)cc1 [Compound 219, N-(4-(8-(4-fluorobenzyl)-3,8-diazabicyclo[3.2.1]octane-3-carbonyl)phenyl)quinoline-8-sulfonamide], COc1ccccc1N1C[C@@H](C)N(C(=O)c2ccc(NS(=O)(=O)c3cccc4cccnc34)cc2)[C@@H](C)C1 [Compound 222, N-(4-((2R,6S)-4-(2-methoxyphenyl)-2,6-dimethylpiperazine-1-carbonyl)phenyl)quinoline-8-sulfonamide] is lower in AC50: 100 to 500 nM for the first, less than 100 nM for the second.

In the case of COc1ccccc1N1CCN(C(=O)c2ccc(NS(=O)(=O)c3cccc4cccnc34)cc2)C(C)C1 (stereo not drawn) [Compound 223, N-(4-(4-(2-methoxyphenyl)-2-methylpiperazine-1-carbonyl)phenyl)quinoline-8-sulfonamide], the AC50 is reported as less than 100 nM.

Same assay, conditions: Table 5

O=C(c1ccc(NS(=O)(=O)c2cccc3cccnc23)c(OC(F)(F)F)c1)N1CCN(Cc2cncc(F)c2)CC1 [Compound 300] and O=C(c1ccc(NS(=O)(=O)c2cccc3cccnc23)c(OC(F)(F)F)c1)N1CCN(Cc2ccncc2F)CC1 [Compound 304, N-(4-(4-((3-fluoropyridin-4-yl)methyl)piperazine-1-carbonyl)-2-(trifluoromethoxy)phenyl)quinoline-8-sulfonamide] fall in the same range of AC50: 100 to 500 nM for the first, 100 to 500 nM for the second.

First: O=C(c1ccc(NS(=O)(=O)c2cccc3cccnc23)c(OC(F)(F)F)c1)N1CCN(CC2CC2)CC1 [Compound 301, N-(4-(4-(cyclopropylmethyl)piperazine-1-carbonyl)-2-(trifluoromethoxy)phenyl)quinoline-8-sulfonamide]
Second: O=C(c1ccc(NS(=O)(=O)c2cccc3cccnc23)c(OC(F)(F)F)c1)N1CCN(CC2CCOC2)CC1 (stereo not drawn) [Compound 302, N-(4-(4-((tetrahydrofuran-3-yl)methyl)piperazine-1-carbonyl)-2-(trifluoromethoxy)phenyl)quinoline-8-sulfonamide]
The AC50 of the first is lower: 100 to 500 nM for the first, 500 to 1000 nM for the second.

For O=C(c1ccc(NS(=O)(=O)c2cccc3cccnc23)c(OC(F)(F)F)c1)N1CCN(CCc2ccccc2)CC1 [Compound 303, N-(4-(4-phenethylpiperazine-1-carbonyl)-2-(trifluoromethoxy)phenyl)quinoline-8-sulfonamide], the AC50 was 100 to 500 nM.
